Reference: patent US20230081426A1, “COMPOUNDS AND METHODS FOR KRAS MODULATION AND INDICATIONS THEREFOR” (Plexxikon Inc., priority 2020, published 2023)

Columns and labels:
[1] = target: T1, G12D-mutant human KRAS (amino acid residues 1-188) (Homo sapiens, UniProt P01116, G12D); test: KRAS Binding Disruption Assay (AlphaScreen; biotinylated KRpep-2d analogue or RAF1-RBD), G12D; conditions: KRAS G12D; geometric mean; read-out: KRAS GMean IC50 (uM) MUTATION: G12D
T1 construct: G12D or G12C-mutant human KRAS (amino acid residues 1-188) with FLAG tag; made in house; host or cells: E. coli
Procedure, shortened: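 Mutant KRAS (5-20 nM) incubated 1 h at 25° C with test compound and 5-20 nM biotinylated KRpep-2d analogue or RAF1-RBD in 20 mM HEPES pH 7.5, 100 mM NaCl, 5 mM MgCl2, 0.01% Tween-20, 0.01% BSA.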

[2] = target: T2, G12V-mutant human KRAS (amino acid residues 1-188) (Homo sapiens, UniProt P01116, G12V); test: KRAS Binding Competition Assay (AlphaScreen; biotinylated KRpep-2d analogue), G12V; conditions: geometric mean, read-out: KRAS GMean IC50 (uM) MUTATION: G12V
T2 construct: G12V-mutant human KRAS (amino acid residues 1-188) with FLAG tag was purified from E. coli; made in house; host or cells: E. coli

CN1CCC[C@H]1COc1nc(N2C[C@H]3CC[C@@H](C2)N3)c2ccc(-c3cnc(N)nc3C(F)(F)F)cc2n1 [P-0180, 5-(4-((1R,5S)-3,8-diazabicyclo[3.2.1]octan-3-yl)-2-(((S)-1-methylpyrrolidin-2-yl)methoxy)quinazolin-7-yl)-4-(trifluoromethyl)pyrimidin-2-amine]
IC50 [1]: 10 to 100 µM | IC50 [2]: 100 to 1000 µM

OCCc1nc(N2C[C@H]3CC[C@@H](C2)N3)c2ccc(-c3cc(O)cc4ccccc34)c(F)c2n1 [P-0431, 4-(4-((1R,5S)-3,8-diazabicyclo[3.2.1]octan-3-yl)-8-fluoro-2-(2-hydroxyethyl)quinazolin-7-yl)naphthalen-2-ol]
IC50 [1]: 0.0001 to 10 µM | IC50 [2]: 10 to 100 µM

CN1CCC[C@H]1COc1nc(N2[C@@H]3CC[C@H]2CNC3)c2ccc(-c3c(F)ccc(N)c3F)cc2n1 [P-0288, 3-(4-((1R,5S)-3,8-diazabicyclo[3.2.1]octan-8-yl)-2-(((S)-1-methylpyrrolidin-2-yl)methoxy)quinazolin-7-yl)-2,4-difluoroaniline]
IC50 [1]: 10 to 100 µM | IC50 [2]: 10 to 100 µM

CN1C(=O)C(CC(=O)N2[C@@H]3CC[C@H]2CN(c2nc(OC[C@@H]4CCCN4C)nc4cc(-c5cc(O)cc6ccccc56)ccc24)C3)N(C)C1=O (stereo partly drawn) [P-0369, 5-(2-((1R,5S)-3-(7-(3-hydroxynaphthalen-1-yl)-2-(((S)-1-methylpyrrolidin-2-yl)methoxy)quinazolin-4-yl)-3,8-diazabicyclo[3.2.1]octan-8-yl)-2-oxoethyl)-1,3-dimethylimidazolidine-2,4-dione]
IC50 [1]: 0.0001 to 10 µM | IC50 [2]: 10 to 100 µM

CN1CCC[C@H]1COc1nc(N2CC3CCC(C2)N3C(=O)CCCN2CCOCC2)c2ccc(-c3cc(O)cc4ccccc34)c(F)c2n1 (racemic) [P-0429, 1-((1R,5S)-3-(8-fluoro-7-(3-hydroxynaphthalen-1-yl)-2-(((RS)-1-methylpyrrolidin-2-yl)methoxy)quinazolin-4-yl)-3,8-diazabicyclo[3.2.1]octan-8-yl)-4-morpholinobutan-1-one]
IC50 [1]: 0.0001 to 10 µM | IC50 [2]: 10 to 100 µM

CN1CCC[C@H]1COc1nc(N2[C@@H]3CC[C@H]2CN(c2nccc(N)n2)C3)c2ccc(-c3cc(O)cc4ccccc34)cc2n1 [P-0270, 4-(4-((1R,5S)-3-(4-aminopyrimidin-2-yl)-3,8-diazabicyclo[3.2.1]octan-8-yl)-2-(((S)-1-methylpyrrolidin-2-yl)methoxy)quinazolin-7-yl)naphthalen-2-ol]
IC50 [1]: 0.0001 to 10 µM | IC50 [2]: 10 to 100 µM

CN1CCC[C@H]1COc1nc(N2C[C@H]3CC[C@@H](C2)N3)c2ccc(-c3csc4ccccc34)cc2n1 [P-0154, 7-(benzo[b]thiophen-3-yl)-4-((1R,5S)-3,8-diazabicyclo[3.2.1]octan-3-yl)-2-(((S)-1-methylpyrrolidin-2-yl)methoxy)quinazoline]
IC50 [1]: 10 to 100 µM | IC50 [2]: 10 to 100 µM

CN1CCC[C@H]1COc1nc(N2C[C@H]3CC[C@@H](C2)N3)c2cc(F)c(-c3c[nH]c4ccc(Cl)cc34)c(F)c2n1 [P-0310, 4-((1R,5S)-3,8-diazabicyclo[3.2.1]octan-3-yl)-7-(5-chloro-1H-indol-3-yl)-6,8-difluoro-2-(((S)-1-methylpyrrolidin-2-yl)methoxy)quinazoline]
IC50 [1]: 0.0001 to 10 µM | IC50 [2]: 10 to 100 µM

CN1CCC[C@H]1COc1nc(N2C[C@H]3CC[C@@H](C2)N3)c2ccc(Nc3n[nH]c4ccccc34)cc2n1 [P-0289, 4-((1R,5S)-3,8-diazabicyclo[3.2.1]octan-3-yl)-N-(1H-indazol-3-yl)-2-(((S)-1-methylpyrrolidin-2-yl)methoxy)quinazolin-7-amine]
IC50 [1]: 10 to 100 µM | IC50 [2]: 10 to 100 µM

CN1CCC[C@H]1COc1nc(N2[C@@H]3CC[C@H]2CN(C(=N)N)C3)c2ccc(-c3cc(O)cc4ccccc34)cc2n1 [P-0231, (1R,5S)-8-(7-(3-hydroxynaphthalen-1-yl)-2-(((S)-1-methylpyrrolidin-2-yl)methoxy)quinazolin-4-yl)-3,8-diazabicyclo[3.2.1]octane-3-carboximidamide]
IC50 [1]: 10 to 100 µM | IC50 [2]: 10 to 100 µM

CN1CCC[C@H]1COc1nc(N2CC3CC(C2)N3)c2cc(Cl)c(-c3cc(O)cc4ccccc34)c(F)c2n1 [P-0031, 4-(4-(3,6-diazabicyclo[3.1.1]heptan-3-yl)-6-chloro-8-fluoro-2-(((S)-1-methylpyrrolidin-2-yl)methoxy)quinazolin-7-yl)naphthalen-2-ol]
IC50 [1]: 0.0001 to 10 µM | IC50 [2]: 10 to 100 µM

CN1CCN(CCCS(=O)(=O)N2[C@@H]3CC[C@H]2CN(c2nc(OCC45CCCN4CCC5)nc4c(F)c(-c5cc(O)cc6ccccc56)ccc24)C3)CC1 [P-0203, 4-(8-fluoro-4-((1R,5S)-8-((3-(4-methylpiperazin-1-yl)propyl)sulfonyl)-3,8-diazabicyclo[3.2.1]octan-3-yl)-2-((tetrahydro-1H-pyrrolizin-7a(5H)-yl)methoxy)quinazolin-7-yl)naphthalen-2-ol]
IC50 [1]: 0.0001 to 10 µM | IC50 [2]: 0.0001 to 10 µM

CN1CCC[C@H]1COc1nc(N2[C@@H]3CC[C@H]2CN(C(=O)CCC(N)=O)C3)c2ccc(-c3cc(O)cc4ccccc34)cc2n1 [P-0218, 4-((1R,5S)-8-(7-(3-hydroxynaphthalen-1-yl)-2-(((S)-1-methylpyrrolidin-2-yl)methoxy)quinazolin-4-yl)-3,8-diazabicyclo[3.2.1]octan-3-yl)-4-oxobutanamide]
IC50 [1]: 10 to 100 µM | IC50 [2]: 10 to 100 µM

O=C(C1C2CCC1CNC2)N1[C@@H]2CC[C@H]1CN(c1nc(OCC34CCCN3CCC4)nc3c(F)c(-c4cc(O)cc5ccccc45)ccc13)C2 (stereo partly drawn) [P-0147, (3-azabicyclo[3.2.1]octan-8-yl)((1R,5S)-3-(8-fluoro-7-(3-hydroxynaphthalen-1-yl)-2-((tetrahydro-1H-pyrrolizin-7a(5H)-yl)methoxy)quinazolin-4-yl)-3,8-diazabicyclo[3.2.1]octan-8-yl)methanone]
IC50 [1]: 0.0001 to 10 µM | IC50 [2]: 0.0001 to 10 µM

CN1CC[C@@H](NC(=O)N2CC3CCCC2CN3c2nc(OC[C@@H]3CCCN3C)nc3c(F)c(-c4cc(O)cc5ccccc45)ccc23)C1 (stereo partly drawn) [P-0297, 8-(8-fluoro-7-(3-hydroxynaphthalen-1-yl)-2-(((S)-1-methylpyrrolidin-2-yl)methoxy)quinazolin-4-yl)-N-((R)-1-methylpyrrolidin-3-yl)-6,8-diazabicyclo[3.2.2]nonane-6-carboxamide]
IC50 [1]: 0.0001 to 10 µM | IC50 [2]: 0.0001 to 10 µM

CN1CCC[C@H]1COc1nc(N2C[C@H]3CC[C@@H](C2)N3C(=O)CC(N)=O)c2cc(Cl)c(-c3cc(O)cc4ccccc34)c(F)c2n1 [P-0451, 3-((1R,5S)-3-(6-chloro-8-fluoro-7-(3-hydroxynaphthalen-1-yl)-2-(((S)-1-methylpyrrolidin-2-yl)methoxy)quinazolin-4-yl)-3,8-diazabicyclo[3.2.1]octan-8-yl)-3-oxopropanamide]
IC50 [1]: 0.0001 to 10 µM | IC50 [2]: 10 to 100 µM

CN1CCC[C@H]1COc1nc(N2C[C@H]3CC[C@@H](C2)N3)c2ccc(-c3c[nH]c4ccccc34)cc2n1 [P-0254, 4-((1R,5S)-3,8-diazabicyclo[3.2.1]octan-3-yl)-7-(1H-indol-3-yl)-2-(((S)-1-methylpyrrolidin-2-yl)methoxy)quinazoline]
IC50 [1]: 10 to 100 µM | IC50 [2]: 10 to 100 µM

CN1CCC[C@H]1COc1nc(N2[C@@H]3CC[C@H]2CN(C(=O)NO)C3)c2ccc(-c3cc(O)cc4ccccc34)cc2n1 [P-0213, (1R,5S)-N-hydroxy-8-(7-(3-hydroxynaphthalen-1-yl)-2-(((S)-1-methylpyrrolidin-2-yl)methoxy)quinazolin-4-yl)-3,8-diazabicyclo[3.2.1]octane-3-carboxamide]
IC50 [1]: 10 to 100 µM | IC50 [2]: 10 to 100 µM
